Laboratory results taken from patent publication US20100305150A1, “TUBEROUS SCLEROSIS TREATMENT” (priority 2006, published 2010).

How the values were obtained:
[1] = test system: Tsc1−/− and Tsc2−/− and control MEF cell lines; assay: Growth of Tsc1−/−, Tsc2−/− and control MEF cell lines, MTT assay; type: cell-based; settings: Tsc1 null and control MEF cell lines
Description: MEF cell lines are generated in which there is loss of either Tsc1 or Tsc2 and which have a profound decrease in signaling through Akt. Decreased Akt activation may be seen in response to all stimuli, including serum, PDGF, EGF, insulin, and IGF1. […] In addition, over-expression of PDGFRα by short or long-term transfection leads to increased Akt phosphorylation and stimulation in response to multiple growth factors.
Signaling in Tsc 1 or Tsc 2 null MEFs in response to IGF1 in combination with a Compound A may be explored. Wortmannin may be used as an […].
Growth of Tsc1−/− and Tsc2−/− and control MEF cell lines in serum may be assessed in triplicate wells of cells plated at uniform density using the MTT assay. Growth responses are normalized individually for each cell line, to growth in the absence of any stimulation.

[2] = test system: kidney and liver tumors in Tsc2+/− mice; assay: Treatment trial in Tsc2+/− mouse model of Tsc with carcinogen ENU (1 month study); type: in vivo; settings: ENU to accelerate kidney tumor formation
Protocol: (§1) Also trials of treatment with a Compound A in mouse models of Tsc may be carried out (1 month study). A first trial is performed in the Tsc1+/− mice, in which there is a sex effect on tumor development, so that female mice are studied only. A second trial is performed in Tsc2+/− mice, in which the use of the carcinogen ENU is performed to enhance and accelerate the rate of tumor formation in the kidney.

[3] = test system: NF1 deficient cell or animals (mice) models; assay: Activity in neurofibromatosis, NF1 deficient cell or animal models
Description: Activity in neurofibromatosis may be determined in NF1 deficient cell or animals (mice) models, e.g. analogously to TSC deficient cell or animals (mice) models.

[4] = test system: kidney and liver tumors in Tsc1+/− mice; assay: Treatment trial in Tsc1+/− mouse model of Tsc (1 month study); type: in vivo; settings: female mice only
Protocol: as §1

SMILES: CO[C@H]1C[C@@H]2CC[C@@H](C)[C@@](O)(O2)C(=O)C(=O)N2CCCC[C@H]2C(=O)O[C@H]([C@H](C)C[C@@H]2CC[C@@H](OCCO)[C@H](OC)C2)CC(=O)[C@H](C)/C=C(\C)[C@@H](O)[C@@H](OC)C(=O)[C@H](C)C[C@H](C)/C=C/C=C/C=C/1C [Compound A, 40-O-(2-hydroxyethyl)-rapamycin]
- growth response of the cells to IGF1 ([1]; IGF1 stimulation): blocks any growth response of the cells to IGF1
- growth of the cell lines (MTT assay) ([1]; serum or IGF1 stimulation, all conditions): significantly reduces growth under all conditions
- reduction of kidney and liver tumors [2]: dramatic effect in reducing kidney and liver tumors
- activity in neurofibromatosis assays [3]: shows activity
- reduction of kidney and liver tumors [4]: dramatic effect in reducing kidney and liver tumors
